What follows are molecules tested on MDR1-MDCK cell monolayers.
With COc1ccc(-c2csc(Nc3ccc(C(F)(F)F)cn3)n2)cc1OC [Compound 12, [4-(3,4-dimethoxyphenyl)-thiazol-2-yl]-(5-trifluoromethylpyridin-2-yl)-amine] the “Permeability (in words)” value was “greater permeability in the absorptive direction”. COc1ccc(-c2csc(Nc3ccc4ccccc4n3)n2)cc1OC [Compound 18, [4-(3,4-dimethoxyphenyl)-thiazol-2-yl]-quinolin-2-yl-amine] was tested, and the “Permeability (in words)” value was “greater permeability in the absorptive direction”. Cc1ccc(Nc2nc(-c3c(-c4ccccc4)noc3C)cs2)nc1 [Compound 28, [4-(5-Methyl-3-phenylisoxazol-4-yl)-thiazol-2-yl]-(5-methylpyridin-2-yl)-amine] was tested, and the “Permeability (in words)” value was “greater permeability in the absorptive direction”.

From publication PMC3041857 (Journal of medicinal chemistry, 2011)
